# Reference: patent US7713994B2 (Wyeth LLC, priority 2005, dated 2010)
# pIC50: −log10 of the molar value.
# Molecular target: T1, cyclin D1/cdk 4 enzyme (Homo sapiens, UniProt P11802)
# T1 construct: made in house; host or cells: Sf9 insect cells, recombinant baculovirus
# Assay: CDK4 ELISA kinase assay (phospho-Rb ser 795 detection)
# Format: biochemical
# Conditions: In Vitro Enzyme Assay, cyclin D1/cdk 4, read-out: CDK4 IC50
# Experimental: • 1. High-binding ELISA microtiter plates (Costar) were coated with 40 μl of the kinase substrate (GST fusion of C-terminal fragment of the retinoblastoma susceptibility gene product) diluted to 10 μg/ml in tris-buffered saline (TBS), overnight at 4° C. • 2. Non-specific binding sites were blocked for 1 hour at 4° C. with Superblock in TBS (Pierce), and the plates rinsed with water. • 3. For the screen, 1.5 μl of test compound (200 μg/ml stock in 20% DMSO/20 mM HEPES, pH 7.5) was added to each well. Final dose of the test compound in the assay was 10 ug/ml. […] The kinase reaction (30 μl) was dispensed into each well. Reactions contained 200 μM ATP, 0.5 mg/ml bovine serum albumin (BSA; Sigma), and 0.5 μl partially purified cyclin D1/cdk 4 enzyme*. The enzyme complex is expressed in insect cells (Sf9) infected with recombinant baculovirus and partially purified using ammonium sulfate fractionation. Reaction volumes were adjusted to 30 μl with kinase assay buffer (50 mM HEPES, pH 7.5, 10 mM MgCl2, 5% glycerol, 10 mM 2-mercaptoethanol). • *: For CDK2 assay, 1.0 μl cyclin E/CDK2 enzyme (diluted 1:1000 in kinase assay buffer) was used. The enzyme is isolated from insect cells (Sf9) infected with recombinant baculovirus and partially purified using ammonium sulfate fractionation. For CDK1 assay, 0.08 μl cyclin B/CDK1 enzyme [New England BioLabs; the enzyme is isolated from insect cells (Sf9) infected with recombinant baculovirus carrying human cdc 2 and human cyclin B] was used.
# […] • 5. Plates were incubated at 30° C. for 1 hour. • 6. The reaction mixture was removed by aspiration and replaced with 250 μl TBS containing 0.1% Tween-20 and 5% nonfat dry milk (blocking buffer). The plates were incubated at 4° C. for 1 hour. • 7. The blocking buffer was removed and replaced with 50 μl of the primary antibody [anti-phospho-Rb ser 795 (New England BioLabs) diluted 1:1000 in blocking buffer]. Incubation was at 4° C. for 16-20 hours. • 8. The wells were rinsed 3 times with 250 μl of TBS containing 0.1% Tween-20 followed by the addition of 50 μl of secondary antibody [anti-rabbit IgG conjugated to horseradish peroxidase (Amersham Life Science) diluted 1:1000 in blocking buffer]. • 9. After a 1 hour incubation at room temperature, the wells were rinsed 3 times with 250 μl of TBS/0.1% Tween 20. • 10. TMB (3,3′,5,5′-tetramethylbenzidine dihydrochloride) substrate solution (100 μl; Pierce) was added to each well and the color development reaction allowed to proceed 5-10 minutes at room temperature with shaking. The reaction was stopped by the addition of 2N sulfuric acid (100 μl) and the absorbance values read at 450 nm in a microplate reader (Molecular Devices). Analysis of Results: • 1. The percentage of the absorbance value in wells containing the test compound relative to control wells (no test agent) was determined. • 2. IC50 values of selected compounds were determined from inhibition curves, after subtracting background values (no substrate).
# T1 sequence (P11802 whole entry, species assumed): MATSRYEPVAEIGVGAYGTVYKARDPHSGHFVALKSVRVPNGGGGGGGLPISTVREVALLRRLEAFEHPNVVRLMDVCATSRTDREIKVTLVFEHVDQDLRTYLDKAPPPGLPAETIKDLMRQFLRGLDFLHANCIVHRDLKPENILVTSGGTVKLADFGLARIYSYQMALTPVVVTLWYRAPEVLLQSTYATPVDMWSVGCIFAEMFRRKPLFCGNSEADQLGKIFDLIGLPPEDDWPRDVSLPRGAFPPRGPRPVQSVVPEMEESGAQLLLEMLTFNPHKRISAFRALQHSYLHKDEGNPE
# T1 sequence (P24385 whole entry partner, species assumed): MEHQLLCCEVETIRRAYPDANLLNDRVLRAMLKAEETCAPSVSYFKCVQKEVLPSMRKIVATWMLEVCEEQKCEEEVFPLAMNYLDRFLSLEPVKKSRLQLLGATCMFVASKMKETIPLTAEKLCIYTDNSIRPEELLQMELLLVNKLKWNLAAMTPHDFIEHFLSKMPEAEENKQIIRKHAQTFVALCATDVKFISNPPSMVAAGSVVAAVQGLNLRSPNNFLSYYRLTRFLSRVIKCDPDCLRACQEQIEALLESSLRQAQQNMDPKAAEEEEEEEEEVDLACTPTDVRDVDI
row,pIC50,Compound
1,4.34,"6-[2-(4-Fluoro-phenyl)-vinyl]-4-{[4-(4-methyl-piperazin-1-yl)-phenylamino]-methylene}-4H-isoquinoline-1,3-dione [Example 731]"
2,4.71,"NS(=O)(=O)c1ccc(CNC=C2C(=O)NC(=O)c3ccccc32)cc1 [Example 540, 4-{[(1,3-Dioxo-2,3-dihydro-1H-isoquinolin-4-ylidenemethyl)-amino]-methyl}-benzenesulfonamide]"
3,4.43,"O=C1NC(=O)c2ccccc2C1=CNc1ccccc1OC(F)(F)F [Example 541, 4-[(2-Trifluoromethoxy-phenylamino)-methylene]-4H-isoquinoline-1,3-dione]"
4,4.46,"O=C1NC(=O)c2ccccc2C1=CNc1cccc(C(=O)O)c1 [Example 542, 3-[(1,3-Dioxo-2,3-dihydro-1H-isoquinolin-4-ylidenemethyl)-amino]-benzoic acid]"
5,4.37,"CCN(CC)CCNC(=O)c1ccc(NC=C2C(=O)NC(=O)c3ccccc32)cc1 [Example 543, N-(2-Diethylamino-ethyl)-4-[(1,3-dioxo-2,3-dihydro-1H-isoquinolin-4-ylidenemethyl)-amino]-benzamide]"
6,4.79,"O=C1NC(=O)c2ccccc2C1=CNCCc1ccc(O)c(O)c1 [Example 544, 4-{[2-(3,4-Dihydroxy-phenyl)-ethylamino]-methylene}-4H-isoquinoline-1,3-dione]"
7,4.70,"O=C(O)C(=O)Nc1ccc(NC=C2C(=O)NC(=O)c3ccccc32)cc1 [Example 546, N-{4-[(1,3-Dioxo-2,3-dihydro-1H-isoquinolin-4-ylidenemethyl)-amino]-phenyl}-oxalamic acid]"
8,4.45,"O=C(O)CSc1ccc(NC=C2C(=O)NC(=O)c3ccccc32)cc1 [Example 548, {4-[(1,3-Dioxo-2,3-dihydro-1H-isoquinolin-4-ylidenemethyl)-amino]-phenylsulfanyl}-acetic acid]"
9,4.40,"Cc1nnc(NS(=O)(=O)c2ccc(NC=C3C(=O)NC(=O)c4ccccc43)cc2)s1 [Example 549, 4-[(1,3-Dioxo-2,3-dihydro-1H-isoquinolin-4-ylidenemethyl)-amino]-N-(5-methyl-[1,3,4]thiadiazol-2-yl)-benzenesulfonamide]"
10,4.83,"O=C1NC(=O)c2ccccc2C1=CNc1ccccc1-c1nc2ccccc2[nH]1 [Example 551, 4-{[2-(1H-Benzoimidazol-2-yl)-phenylamino]-methylene}-4H-isoquinoline-1,3-dione]"
11,4.49,"O=C1NC(=O)c2ccccc2C1=CNNc1cccc(C(=O)O)c1 [Example 552, 3-[N′-(1,3-Dioxo-2,3-dihydro-1H-isoquinolin-4-ylidenemethyl)-hydrazino]-benzoic acid]"
12,4.63,"Cc1nc(NS(=O)(=O)c2ccc(NC=C3C(=O)NC(=O)c4ccccc43)cc2)oc1C [Example 553, N-(4,5-Dimethyl-oxazol-2-yl)-4-[(1,3-dioxo-2,3-dihydro-1H-isoquinolin-4-ylidenemethyl)-amino]-benzenesulfonamide]"
13,4.44,"CC(=O)N(C)c1ccc(NC=C2C(=O)NC(=O)c3ccccc32)cc1 [Example 554, N-{4-[(1,3-Dioxo-2,3-dihydro-1H-isoquinolin-4-ylidenemethyl)-amino]-phenyl}-N-methyl-acetamide]"
14,4.32,"Cc1cc(NS(=O)(=O)c2ccc(NC=C3C(=O)NC(=O)c4ccccc43)cc2)no1 [Example 556, 4-[(1,3-Dioxo-2,3-dihydro-1H-isoquinolin-4-ylidenemethyl)-amino]-N-(5-methyl-isoxazol-3-yl)-benzenesulfonamide]"
15,4.71,"O=C(O)C=Cc1ccc(NC=C2C(=O)NC(=O)c3ccccc32)cc1 [Example 557, 3-{4-[(1,3-Dioxo-2,3-dihydro-1H-isoquinolin-4-ylidenemethyl)-amino]-phenyl}-acrylic acid]"
16,4.56,"O=C(O)CCCc1ccc(NC=C2C(=O)NC(=O)c3ccccc32)cc1 [Example 558, 4-{4-[(1,3-Dioxo-2,3-dihydro-1H-isoquinolin-4-ylidenemethyl)-amino]-phenyl}-butyric acid]"
17,4.71,"O=C1NC(=O)c2ccccc2C1=CNc1ccc(O)cc1 [Example 559, 4-[(4-Hydroxy-phenylamino)-methylene]-4H-isoquinoline-1,3-dione]"
18,4.76,"O=C1NC(=O)c2ccccc2C1=CNc1ccc(C(=O)O)c(O)c1 [Example 560, 4-[(1,3-Dioxo-2,3-dihydro-1H-isoquinolin-4-ylidenemethyl)-amino]-2-hydroxy-benzoic acid]"
19,4.34,"COc1ccc(NC=C2C(=O)NC(=O)c3ccccc32)cc1O [Example 561, 4-[(3-Hydroxy-4-methoxy-phenylamino)-methylene]-4H-isoquinoline-1,3-dione]"
20,4.80,"O=C1NC(=O)c2ccccc2C1=CNc1ccc(O)cc1C(=O)O [Example 562, 2-[(1,3-Dioxo-2,3-dihydro-1H-isoquinolin-4-ylidenemethyl)-amino]-5-hydroxy-benzoic acid]"
21,4.42,"O=C1NC(=O)c2ccccc2C1=CNc1c(O)cccc1O [Example 565, 4-[(2,6-Dihydroxy-phenylamino)-methylene]-4H-isoquinoline-1,3-dione]"
22,4.53,"O=C1NC(=O)c2ccccc2C1=CNC(Cc1ccc(O)c(O)c1)C(=O)O (stereo not drawn) [Example 566, 3-(3,4-Dihydroxy-phenyl)-2-[(1,3-dioxo-2,3-dihydro-1H-isoquinolin-4-ylidenemethyl)-amino]-propionic acid]"
23,4.77,"O=C1NC(=O)c2ccccc2C1=CNc1ccc(O)cc1O [Example 568, 4-[(2,4-Dihydroxy-phenylamino)-methylene]-4H-isoquinoline-1,3-dione]"
24,4.66,"O=C1NC(=O)c2ccccc2C1=CNc1cc(Cl)c([N+](=O)[O-])cc1O [Example 570, 4-[(5-Chloro-2-hydroxy-4-nitro-phenylamino)-methylene]-4H-isoquinoline-1,3-dione]"
25,4.47,"O=C1NC(=O)c2ccccc2C1=CNc1ccc(N2CCN(CCN3CCOCC3)CC2)cc1 [Example 571, 4-({4-[4-(2-Morpholin-4-yl-ethyl)-piperazin-1-yl]-phenylamino}-methylene)-4H-isoquinoline-1,3-dione]"
26,4.43,"O=C1NC(=O)c2ccccc2C1=CNc1ccc(N2CCN(CCN3CCCC3)CC2)cc1 [Example 572, 4-({4-[4-(2-Pyrrolidin-1-yl-ethyl)-piperazin-1-yl]-phenylamino}-methylene)-4H-isoquinoline-1,3-dione]"
27,4.51,"Nc1cccc(CNC=C2C(=O)NC(=O)c3ccccc32)c1 [Example 573, 4-[(3-Amino-benzylamino)-methylene]-4H-isoquinoline-1,3-dione]"
28,4.63,"NCc1cccc(CNC=C2C(=O)NC(=O)c3ccccc32)c1 [Example 578, 4-[(3-Aminomethyl-benzylamino)-methylene]-4H-isoquinoline-1,3-dione]"
29,4.69,"O=C1NC(=O)c2ccccc2C1=CNCc1cccc(NS(=O)(=O)c2cccs2)c1 [Example 579, Thiophene-2-sulfonic acid (3-{[(1,3-dioxo-2,3-dihydro-1H-isoquinolin-4-ylidenemethyl)-amino]-methyl}-phenyl)-amide]"

row,Compound,pIC50
1,"4-({[6-(3-Cyano-phenyl)-1,3-dioxo-2,3-dihydro-1H-isoquinolin-4-ylidenemethyl]-amino}-methyl)-benzenesulfonamide [Example 756]",4.70
